{"source": "patent US20230255197A1", "about": "“INFLUENCE OF THE MORPHOLOGICAL AND THE STRUCTURAL CHANGES ON THE ANTIMICROBIAL ACTIVITIES OF TITANATE NANOWIRES” (BOARD OF TRUSTEES OF THE UNIVERSITY OF ARKANSAS, priority 2022, published 2023)", "tested_on": "E. coli cells", "assay": "E. coli growth in LB medium in 96-well plates, cell growth monitored by absorbance at 600 nm", "type": "cell-based", "settings": "37° C., O.D. at 600 nm = 0.25, read from FIG. 2, chloramphenicol:nanomaterial w/w 1:10", "experimental": "In step (3), to test the antimicrobial efficiency, solution of E. coli cells were inoculated into fresh LB medium and incubated at 37° C. overnight. In one embodiment, 5µL solution of E. coli cells was inoculated into 2 ml of fresh LB medium. Sample of the overnight culture was transferred into each well of a 96-well plate and further grown with 200 µL fresh LB medium. To test antimicrobial activities, different concentrations of antimicrobial agents alone, TiO2 alone, and TiO2 nanowires - chloramphenicol complex were added to the LB medium with E. coli cells. It should be noted that same procedure was followed to prepare different concentrations (1, 2, 3, 4, and 5 µg/ml) of either chloramphenicol alone, nanomaterials alone or a mixture of both. Three identical replicates were prepared on the plate for each assigned material. Then, the 96-well plates were sealed with an oxygen-permeable membrane and the cell growth was monitored by reading the absorbance at 600 nm with microplate readers at 37° C. continuously. Equal amounts of chloramphenicol were mixed with each sample of the assigned version of nanomaterials (Na-TiO2 and K-TiO2) with a w/w ratio of 1:10. […]"}
{"compound": "O=C(N[C@H](CO)[C@H](O)c1ccc([N+](=O)[O-])cc1)C(Cl)Cl", "note": "[chloramphenicol]", "values": [{"measurement": "concentration of chloramphenicol necessary to reach the same O.D. reading 0.25 (same degree of antimicrobial activity)", "value": 5, "unit": "µg/mL"}]}
